Results from patent publication EP1489910B1 (priority 2002, dated 2003).
“And” between values parts separate entries of the source, which are not always exact repeats. Identical values can stand only once. Like-named read-outs stand apart in the source and are kept apart here.

Experiments:
[1] = tested on: cucumber mosaic virus; assay type: in vivo, Cucumber mosaic virus (CMV)
[2] = tested on: influenza A2 (Japan 305); parameters: dose or concentration left out as unconfirmed; conditions: in-vitro; 1/4 of its estimated maximum tolerated concentration; cited from earlier work
[3] = tested on: CMV; conditions: plants infected with CMV; one range printed for CMV and ToMV; cited from earlier work
[4] = tested on: ToMV; conditions: plants infected with ToMV; one range printed for CMV and ToMV; cited from earlier work
[5] = tested on: HSV; conditions: legend not given; cited from earlier work
[6] = tested on: PVX; conditions: susceptible virus PVX; cited from earlier work
[7] = tested on: CLSV; conditions: susceptible virus CLSV; cited from earlier work
[8] = tested on: measles; conditions: in-vitro; cited from earlier work
[9] = tested on: herpes viruses; conditions: in-vitro; cited from earlier work
[10] = tested on: HSVlesions; conditions: HSVlesions in humans; cited from earlier work
[11] = tested on: VSV; conditions: legend not given; cited from earlier work
[12] = tested on: Vaccinia; conditions: legend not given; cited from earlier work
[13] = tested on: adenovirus; conditions: no symbol given; cited from earlier work
[14] = tested on: HSV Keratitis; conditions: HSV Keratitis in rabbits; cited from earlier work
[15] = tested on: pseudorabies virus (Suid herpes virus 1, SHV-1); conditions: cited from earlier work
[16] = 1000-ppm 2-Thiouracil as control

O=c1cc[nH]c(=S)[nH]1 [2-Thiouracil]
Average No of lesions Control [1, 16]: 1.9 and 1.7 and 1.1 | No of lesions on Control [1, 16]: 19 and 17 and 11

NC12CC3CC(CC(C3)C1)C2 [Amantadine]
Average No of lesions Control ([1]; 1000-ppm Amantadine as control): 4.5 and 4.0 and 4.8 | No of lesions on Control ([1]; 1000-ppm Amantadine as control): 45 and 40 and 48 | inhibition of influenza A2 (Japan 305) [2]: 98%

O=C1NCCCN1CN1CCOCC1 [DD13, 1-Morpholino methyl-tetrahydro-2-(1H)-pyrimidinone]
protective effect in % plants infected [3]: 97-100% | protective effect in % plants infected [4]: 97-100%

CC1(C)[C@@H](O)CC[C@]2(C)[C@H]3C(=O)C=C4[C@@H]5C[C@@](C)(C(=O)O)CC[C@]5(C)CC[C@@]4(C)[C@]3(C)CC[C@@H]12 [Glycyrrhetinic acid]
Virucidal [5]: +HSV only

CC1(C)[C@@H](O[C@H]2O[C@H](C(=O)O)[C@@H](O)[C@H](O)[C@H]2O[C@@H]2O[C@H](C(=O)O)[C@@H](O)[C@H](O)[C@H]2O)CC[C@]2(C)[C@H]3C(=O)C=C4[C@@H]5C[C@@](C)(C(=O)O)CC[C@]5(C)CC[C@@]4(C)[C@]3(C)CC[C@@H]12 [Glycyrrhizin]
Virucidal [5]: +slight effect

NC(=O)c1ncn([C@@H]2O[C@H](CO)[C@@H](O)[C@H]2O)n1 [Ribavirin]
concentration needed to inhibit local lesion development and to prevent infection [6]: Approximately 1000 ppm | concentration needed to inhibit local lesion development and to prevent infection [7]: Approximately 1000 ppm

C[C@H]1O[C@@H](O[C@H]2CC[C@@]3(C)[C@@H](CC[C@]4(C)[C@@H]3C=C[C@]35OC[C@@]6(CCC(C)(C)C[C@H]63)[C@H](O)C[C@]54C)[C@]2(C)CO)[C@H](O)[C@@H](O[C@@H]2O[C@H](CO)[C@@H](O)[C@H](O)[C@H]2O)[C@H]1O [Saikosaponin-d]
concentration that causes inactivation [8]: greater than 5 µM | concentration that causes inactivation [9]: greater than 5 µM

Carbenoxolone/ cicloxolone
Virucidal [5]: +HSV | Active in vivo [10]: HSVlesions in humans

Hydroxy-protoprimulagenin
Virucidal [5]: +HSV only | Other viruses: VSV [11]: VSV Vaccinia adenovirus | Other viruses: Vaccinia [12]: VSV Vaccinia adenovirus | Other viruses: adenovirus [13]: VSV Vaccinia adenovirus | Active in vivo [14]: HSV Keratitis in rabbits

crossasteroside B
inhibit plaque formation [15]: 43%

crossasteroside D
inhibit plaque formation [15]: 27%
